≈ marks a conversion by molar mass, not a printed value.
Tests used:
Aspergillus fumigatus = experiment: Antifungal activity measured against Aspergillus fumigatus; format: functional
Candida parapsilosis = experiment: Antifungal activity against Candida parapsilosis.; format: functional; settings: Lodderomyces parapsilosis
Epidermophyton floccosum = experiment: Antifungal activity against Epidermophyton floccosum.; format: functional
Cavia porcellus [1] = experiment: In vivo antifungal activity by topical treatment of guinea pig dermatophytosis caused by Trichophyton mentagrophytes at a dose of 0.1%; format: functional
Cavia porcellus [2] = experiment: In vivo antifungal activity by topical treatment of guinea pig dermatophytosis caused by Trichophyton mentagrophytes at a dose of 0.5%; format: functional
Cavia porcellus [3] = experiment: In vivo antifungal activity by topical treatment of guinea pig dermatophytosis caused by Trichophyton mentagrophytes at a dose of 2%; format: functional
Microsporum canis = experiment: Antifungal activity against Microsporum canis; format: functional
Sporothrix schenckii = experiment: Antifungal activity measured against Sporothrix schenck ii.; format: functional
Trichophyton benhamiae = experiment: Antifungal activity measured against Trichophyton mentagrophytes; format: functional, Arthroderma benhamiae

SMILES	MIC (Aspergillus fumigatus)	MIC (Candida parapsilosis)	MIC (Epidermophyton floccosum)	Activity (Cavia porcellus [1])	Activity (Cavia porcellus [2])	Activity (Cavia porcellus [3])	MIC (Microsporum canis)	MIC (Sporothrix schenckii)	MIC (Trichophyton benhamiae)
CN(C/C=C/C1=CCCCC1)Cc1cccc2ccccc12	12.5 µg/mL (≈ 42.9 µM)	0.8 µg/mL (≈ 2.75 µM)	0.1 µg/mL (≈ 0.343 µM)	41%	97%	100%	0.1 µg/mL (≈ 0.343 µM)	0.8 µg/mL (≈ 2.75 µM)	0.05 µg/mL (≈ 0.172 µM)
CN(C/C=C/c1ccccc1)Cc1cn(C)c2ccccc12	> 100 µg/mL	25 µg/mL (≈ 86.1 µM)	≤ 1.6 µg/mL	0%	0%	88%	≤ 1.6 µg/mL	≤ 1.6 µg/mL	≤ 1.6 µg/mL
C/C(=C\CN(C)Cc1cccc2ccccc12)c1ccccc1	> 100 µg/mL	> 100 µg/mL	100 µg/mL (≈ 332 µM)				100 µg/mL (≈ 332 µM)	100 µg/mL (≈ 332 µM)	50 µg/mL (≈ 166 µM)
C/C=C/CN(C)Cc1cccc2ccccc12	> 100 µg/mL	> 100 µg/mL	> 100 µg/mL				> 100 µg/mL	> 100 µg/mL	> 100 µg/mL
C(=C\c1ccccc1)/CN(Cc1ccccc1)Cc1cccc2ccccc12	> 100 µg/mL	> 100 µg/mL	> 100 µg/mL				> 100 µg/mL	> 100 µg/mL	> 100 µg/mL
CN(C/C=C/c1ccccc1)Cc1cc2ccccc2c2ccccc12	100 µg/mL (≈ 296 µM)	100 µg/mL (≈ 296 µM)	100 µg/mL (≈ 296 µM)				100 µg/mL (≈ 296 µM)	100 µg/mL (≈ 296 µM)	100 µg/mL (≈ 296 µM)
CC(=O)N(C/C=C/c1ccccc1)Cc1cccc2ccccc12	> 100 µg/mL	> 100 µg/mL	> 100 µg/mL				> 100 µg/mL	> 100 µg/mL	> 100 µg/mL
CN(C/C=C/c1cccc2ccccc12)Cc1cccc2ccccc12	> 100 µg/mL	> 100 µg/mL	100 µg/mL (≈ 296 µM)				100 µg/mL (≈ 296 µM)	100 µg/mL (≈ 296 µM)	1.6 µg/mL (≈ 4.74 µM)
CCN(C/C=C/c1ccccc1)Cc1cccc2ccccc12	100 µg/mL (≈ 332 µM)	12.5 µg/mL (≈ 41.5 µM)	< 1.6 µg/mL	19%	25%	81%	< 1.6 µg/mL	12.5 µg/mL (≈ 41.5 µM)	< 1.6 µg/mL
Cc1ccc(/C=C/CN(C)Cc2cccc3ccccc23)cc1	> 100 µg/mL	50 µg/mL (≈ 166 µM)	< 1.6 µg/mL	7%	22%	50%	< 1.6 µg/mL	12.5 µg/mL (≈ 41.5 µM)	< 1.6 µg/mL
C(=C\c1ccccc1)/CN(C/C=C/c1ccccc1)Cc1cccc2ccccc12	> 100 µg/mL	> 100 µg/mL	> 100 µg/mL				> 100 µg/mL	> 100 µg/mL	> 100 µg/mL
C(=C\c1ccccc1)/C=N/Cc1cccc2ccccc12	> 100 µg/mL	> 100 µg/mL	100 µg/mL (≈ 369 µM)				> 100 µg/mL	100 µg/mL (≈ 369 µM)	100 µg/mL (≈ 369 µM)
CN(C/C=C/c1ccccc1)CC1=CCOc2ccccc21	50 µg/mL (≈ 172 µM)	6.2 µg/mL (≈ 21.3 µM)	0.4 µg/mL (≈ 1.37 µM)			82%	0.4 µg/mL (≈ 1.37 µM)	6.2 µg/mL (≈ 21.3 µM)	0.2 µg/mL (≈ 0.686 µM)
CC(/C=C/c1ccccc1)N(C)Cc1cccc2ccccc12 (stereo not given)	> 100 µg/mL	> 100 µg/mL	12.5 µg/mL (≈ 41.5 µM)				25 µg/mL (≈ 82.9 µM)	25 µg/mL (≈ 82.9 µM)	< 1.6 µg/mL
CC(C)N(C/C=C/c1ccccc1)Cc1cccc2ccccc12	> 100 µg/mL	100 µg/mL (≈ 317 µM)	< 1.6 µg/mL				3.1 µg/mL (≈ 9.83 µM)	50 µg/mL (≈ 158 µM)	< 1.6 µg/mL
CN(C/C=C/C1CC=CCC1)Cc1cccc2ccccc12 (stereo not given)	> 100 µg/mL	> 100 µg/mL	25 µg/mL (≈ 85.8 µM)				25 µg/mL (≈ 85.8 µM)	100 µg/mL (≈ 343 µM)	25 µg/mL (≈ 85.8 µM)
CN(C/C=C/c1ccncc1)Cc1cccc2ccccc12	> 100 µg/mL	> 100 µg/mL	25 µg/mL (≈ 86.7 µM)				25 µg/mL (≈ 86.7 µM)	100 µg/mL (≈ 347 µM)	< 1.6 µg/mL
CN(C/C=C/c1ccco1)Cc1cccc2ccccc12	> 100 µg/mL	> 100 µg/mL	6.2 µg/mL (≈ 22.4 µM)				6.2 µg/mL (≈ 22.4 µM)	100 µg/mL (≈ 361 µM)	< 1.6 µg/mL
CN(Cc1cccc2ccccc12)C(=O)/C=C/c1ccccc1	> 100 µg/mL	> 100 µg/mL	> 100 µg/mL				> 100 µg/mL	> 100 µg/mL	> 100 µg/mL
CN(C/C=C/c1cccn1C)Cc1cccc2ccccc12	> 100 µg/mL	> 100 µg/mL	25 µg/mL (≈ 86.1 µM)				50 µg/mL (≈ 172 µM)	50 µg/mL (≈ 172 µM)	25 µg/mL (≈ 86.1 µM)
CN(C/C=C/c1ccccc1)C(c1ccccc1)c1ccccc1	> 100 µg/mL	> 100 µg/mL	> 100 µg/mL				> 100 µg/mL	> 100 µg/mL	> 100 µg/mL
CN(C/C=C/CO)Cc1cccc2ccccc12	> 100 µg/mL	> 100 µg/mL	> 100 µg/mL				> 100 µg/mL	> 100 µg/mL	> 100 µg/mL
CN(C/C=C/c1ccccc1)Cc1csc2ccccc12	25 µg/mL (≈ 85.2 µM)	3.1 µg/mL (≈ 10.6 µM)	0.2 µg/mL (≈ 0.682 µM)	0%	54%	97%	0.2 µg/mL (≈ 0.682 µM)	1.6 µg/mL (≈ 5.45 µM)	0.1 µg/mL (≈ 0.341 µM)
C(=C\c1ccccc1)/CNCc1cccc2ccccc12 [N-DEALKYL NAFTIFINE]	> 100 µg/mL	> 100 µg/mL	100 µg/mL (≈ 366 µM)				100 µg/mL (≈ 366 µM)	100 µg/mL (≈ 366 µM)	12.5 µg/mL (≈ 45.7 µM)
